Reference: patent US20030069307A1, “2-(3,4-Dihydroxyphenyl)ethyl-substituted carbonic acid derivatives and their use” (priority 2001, published 2003)

Columns and labels:
[1] = Rancimat accelerated autoxidation of lipids by air, soya bean oil; conditions: antioxidant power AP = IP(with test solution)/IP(control sample), soya bean oil purified on alumina type N, 0.05% test substance, higher = better
Description: (§1) The activity of the example compounds as antioxidants was compared with that of conventional antioxidants. The test system used was accelerated autoxidation of lipids by air with or without antioxidants, using the Rancimat apparatus (Deutsche Lebensmiftel-Rundschau 1974, vol. 70, pp. 57 to 65) (Rancimat is a registered trademark of Metrohm AG, Herisau, Switzerland).
(§2) The example compounds, vitamin C, α-tocopherol and 3,5-ditert-butyl-4-hydroxytoluene were dissolved in methanol or acetone and 100 μl of the respective test solution were added to a prepared oil sample of 3 g. Only solvent was added to a control sample. A constant dry air stream (20 I/h) was blown through the heated oil sample containing the test solution and the volatile oxidation products (principally short-chain fatty acids, such as formic acid or acetic acid) were collected in a receiver containing water. The conductivity of this aqueous solution was measured continuously and documented. The oxidation of (unsaturated) fats proceeds here only very slowly for a period, and then suddenly increases. The time until the increase is termed the induction period (IP).
(§3) From the equation below, the antioxidant power (AP) was obtained:
(§4) AP=IP(with test solution)/IP(control sample).
(§5) The higher the AP, the higher is the antioxidant activity.

[2] = Rancimat accelerated autoxidation of lipids by air, squalene; conditions: antioxidant power AP = IP(with test solution)/IP(control sample), squalene purified on alumina type N, stabilized with 1 ppm α-tocopherol
Description: as §1, §2, §3, §4, §5
The results for the experiment at 80° C. in squalene which was purified on alumina type N and stabilized with 1 ppm of α-tocopherol are shown in Table 7: […]

[3] = DPPH test for the elimination of free radicals (activity as free-radical scavenger); conditions: DPPH 100 μmol/l in methanol, absorption at 515 nm; smaller = better
Description: The activity of the exemplary compounds as free-radical scavengers was compared with conventional free-radical scavengers. For this, the DPPH (1,1-diphenyl-2-picryl-hydrazyl) test for the elimination of free-radicals was employed (Lebensm.-Wiss. u. Technol., 1995, vol. 28, pp. 25 to 30).
DPPH was dissolved in methanol to give a concentration of 100 μmol/l. A series of dilutions of the example compounds, vitamin C, α-tocopherol and 3,5-ditert-butyl-4-hydroxytoluene were prepared in methanol. Methanol served as control. 2500 μl of the DPPH solution were mixed with 500 μl of each test solution and the decrease in absorption at 515 nm was read off until the decrease was less than 2% per hour. The activity of the test substances as free-radical scavengers was calculated from the following equation:
Activity as free-radical scavenger (%)=100−(absorption of the test compounds)/absorption of the control)×100.
From activity as free-radical scavenger (%) in a number of dilutions of test compounds, for each test compound the effective relative concentration EC50 (based on the initial concentration of DPPH, EC=c (test compound)/c(DPPH)) of a test compound was calculated at which the free-radical DPPH was eliminated by 50%. The smaller the EC50 values, the better is the free-radical scavenging action.

## Cc1cc(C(C)(C)C)c(O)c(C(C)(C)C)c1 [3,5-Ditert-butyl-4-hydroxytoluene, reference compound]
[1]
  AP in soya bean oil at 100° C. containing 0.05% of test substance: 4.8
[2]
  AP in squalene at 80° C. containing 0.005% test substance: 38
[3]
  EC50 (effective relative concentration, c(test compound)/c(DPPH), at which the free-radical DPPH was eliminated by 50%): 0.24 mol/mol

## COC(=O)NCCc1ccc(O)c(O)c1 [Example 1, N-[2-(3,4-Dihydroxyphenyl)ethyl]-O-methylurethane]
[1]
  AP in soya bean oil at 100° C. containing 0.05% of test substance: 15.3
[2]
  AP in squalene at 80° C. containing 0.005% test substance: 76
[3]
  EC50 (effective relative concentration, c(test compound)/c(DPPH), at which the free-radical DPPH was eliminated by 50%): 0.27 mol/mol

## CC(C)[C@@H]1CC[C@@H](C)C[C@H]1OC(=O)NCCc1ccc(O)c(O)c1 [Example 2, N-[2-(3,4-Dihydroxyphenyl)ethyl]-O-[(1R,3R,4S)-menthyl]urethane]
[1]
  AP in soya bean oil at 100° C. containing 0.05% of test substance: 7.1
[2]
  AP in squalene at 80° C. containing 0.005% test substance: 25
[3]
  EC50 (effective relative concentration, c(test compound)/c(DPPH), at which the free-radical DPPH was eliminated by 50%): 0.35 mol/mol

## CCCCCCOC(=O)NCCc1ccc(O)c(O)c1 [Example 3, N-[2-(3,4-Dihydroxyphenyl)ethyl]-O-hexylurethane]
[1]
  AP in soya bean oil at 100° C. containing 0.05% of test substance: 9.8
[2]
  AP in squalene at 80° C. containing 0.005% test substance: 46
[3]
  EC50 (effective relative concentration, c(test compound)/c(DPPH), at which the free-radical DPPH was eliminated by 50%): 0.24 mol/mol

## CCCCC(CC)COC(=O)NCCc1ccc(O)c(O)c1 (centres unmarked) [Example 4, N-[2-(3,4-Dihydroxyphenyl)ethyl]-O-(2-ethylhexyl)urethane]
[1]
  AP in soya bean oil at 100° C. containing 0.05% of test substance: 7.6
[2]
  AP in squalene at 80° C. containing 0.005% test substance: 50
[3]
  EC50 (effective relative concentration, c(test compound)/c(DPPH), at which the free-radical DPPH was eliminated by 50%): 0.25 mol/mol

## CCCCCCNC(=S)NCCc1ccc(O)c(O)c1 [Example 5, N-[2-(3,4-Dihydroxyphenyl)ethyl]-N′-hexylthiourea]
[1]
  AP in soya bean oil at 100° C. containing 0.05% of test substance: 14.4
[2]
  AP in squalene at 80° C. containing 0.005% test substance: 59

## CCCCCCNC(=O)NCCc1ccc(O)c(O)c1 [Example 6, N-[2-(3,4-Dihydroxyphenyl)ethyl]-N′-hexylurea]
[1]
  AP in soya bean oil at 100° C. containing 0.05% of test substance: 26
[2]
  AP in squalene at 80° C. containing 0.005% test substance: 60
[3]
  EC50 (effective relative concentration, c(test compound)/c(DPPH), at which the free-radical DPPH was eliminated by 50%): 0.20 mol/mol

## O=C1O[C@H]([C@@H](O)CO)C(O)=C1O [Vitamin C, reference compound]
[1]
  AP in soya bean oil at 100° C. containing 0.05% of test substance: 1.2
[2]
  AP in squalene at 80° C. containing 0.005% test substance: 0.7
[3]
  EC50 (effective relative concentration, c(test compound)/c(DPPH), at which the free-radical DPPH was eliminated by 50%): 0.27 mol/mol

## Cc1c(C)c2c(c(C)c1O)CC[C@@](C)(CCC[C@H](C)CCC[C@H](C)CCCC(C)C)O2 [α-Tocopherol, reference compound]
[1]
  AP in soya bean oil at 100° C. containing 0.05% of test substance: 5.1
[2]
  AP in squalene at 80° C. containing 0.005% test substance: 39
[3]
  EC50 (effective relative concentration, c(test compound)/c(DPPH), at which the free-radical DPPH was eliminated by 50%): 0.25 mol/mol
